Experimental findings from doi:10.1101/2023.11.24.568596v1 (biorxiv, 2023) are described below.

What all share (details): binder
For assay [1], the target named is AAK1 (Homo sapiens, UniProt Q2M2I8).
The target of assay [2] is CDK2 (Homo sapiens, UniProt P24941).
The target in assay [3] is CK2a1 (Homo sapiens, UniProt P68400).
Assay [4] addresses CLK3 (Homo sapiens, UniProt P49761).
The target in assay [5] is CaMK1g (Homo sapiens, UniProt Q96NX5).
For assay [6], the target named is DAPK1 (Homo sapiens, UniProt P53355).
Assay [7] addresses T1, DRAK2 (Homo sapiens, UniProt O94768).
T1 sequence (O94768 1-372): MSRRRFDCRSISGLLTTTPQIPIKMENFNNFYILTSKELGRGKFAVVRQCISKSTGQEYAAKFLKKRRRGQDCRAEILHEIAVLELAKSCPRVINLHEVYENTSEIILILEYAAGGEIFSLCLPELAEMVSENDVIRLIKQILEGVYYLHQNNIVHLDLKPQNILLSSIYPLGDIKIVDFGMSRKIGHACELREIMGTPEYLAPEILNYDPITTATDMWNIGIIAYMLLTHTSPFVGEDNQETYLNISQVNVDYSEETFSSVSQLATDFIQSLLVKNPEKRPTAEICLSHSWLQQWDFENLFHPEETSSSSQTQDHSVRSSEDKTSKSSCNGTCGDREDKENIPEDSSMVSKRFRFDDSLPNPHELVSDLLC

Assay [8] deals with DYRK1A (Homo sapiens, UniProt Q13627).
Assay [9] concerns the target Erk2 (Homo sapiens, UniProt P28482).
Assay [10] deals with T2, FECH (Homo sapiens, UniProt P22830).
T2 sequence (P22830 1-423): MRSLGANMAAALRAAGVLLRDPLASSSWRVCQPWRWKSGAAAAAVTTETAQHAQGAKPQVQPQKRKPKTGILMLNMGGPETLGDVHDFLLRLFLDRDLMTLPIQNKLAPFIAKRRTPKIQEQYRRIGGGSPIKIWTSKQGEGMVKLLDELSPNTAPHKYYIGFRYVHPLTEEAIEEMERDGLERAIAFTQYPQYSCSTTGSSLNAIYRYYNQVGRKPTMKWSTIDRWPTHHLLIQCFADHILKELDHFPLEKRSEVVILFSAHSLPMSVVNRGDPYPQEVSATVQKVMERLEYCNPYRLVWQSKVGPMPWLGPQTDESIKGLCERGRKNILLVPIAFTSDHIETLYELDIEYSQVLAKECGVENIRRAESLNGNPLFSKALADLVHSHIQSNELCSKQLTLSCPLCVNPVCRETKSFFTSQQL

In assay [11] the target is MAPKAPK2 (Homo sapiens, UniProt P49137).
Assay [12] deals with T3, MST1 (Homo sapiens, UniProt Q13043).
T3 sequence (Q13043 1-487): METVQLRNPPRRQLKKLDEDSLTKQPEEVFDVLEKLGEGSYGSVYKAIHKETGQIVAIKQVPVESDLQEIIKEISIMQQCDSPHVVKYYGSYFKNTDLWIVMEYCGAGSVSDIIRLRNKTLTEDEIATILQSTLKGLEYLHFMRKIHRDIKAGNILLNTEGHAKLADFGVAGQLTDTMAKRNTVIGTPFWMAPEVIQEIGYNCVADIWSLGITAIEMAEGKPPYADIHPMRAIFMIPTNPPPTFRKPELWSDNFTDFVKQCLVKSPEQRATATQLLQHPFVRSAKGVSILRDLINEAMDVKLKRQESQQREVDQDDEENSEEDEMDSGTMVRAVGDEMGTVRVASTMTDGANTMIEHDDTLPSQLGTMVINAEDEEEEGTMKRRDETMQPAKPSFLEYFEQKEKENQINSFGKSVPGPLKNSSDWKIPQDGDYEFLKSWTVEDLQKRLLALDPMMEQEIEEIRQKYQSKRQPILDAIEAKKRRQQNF

Assay [13] concerns the target MST4 (Homo sapiens, UniProt Q9P289).
Assay [14] deals with NDR2 (Homo sapiens, UniProt Q9Y2H1).
Assay [15] deals with PAK4 (Homo sapiens, UniProt O96013).

Molecules are shown by their SMILES.

MAPKAPK2, sequence (P49137 whole entry): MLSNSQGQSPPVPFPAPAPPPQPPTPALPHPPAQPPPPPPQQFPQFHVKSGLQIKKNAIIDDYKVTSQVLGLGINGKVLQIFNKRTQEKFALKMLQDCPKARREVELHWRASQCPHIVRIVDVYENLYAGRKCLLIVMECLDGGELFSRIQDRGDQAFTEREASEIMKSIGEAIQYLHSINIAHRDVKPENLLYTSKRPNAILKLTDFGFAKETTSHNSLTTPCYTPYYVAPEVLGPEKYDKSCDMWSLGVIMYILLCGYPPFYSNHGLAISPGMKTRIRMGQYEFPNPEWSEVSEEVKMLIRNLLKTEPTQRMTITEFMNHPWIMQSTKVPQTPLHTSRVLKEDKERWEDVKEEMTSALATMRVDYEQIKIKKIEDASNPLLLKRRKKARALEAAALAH
MST4, sequence (Q9P289 whole entry): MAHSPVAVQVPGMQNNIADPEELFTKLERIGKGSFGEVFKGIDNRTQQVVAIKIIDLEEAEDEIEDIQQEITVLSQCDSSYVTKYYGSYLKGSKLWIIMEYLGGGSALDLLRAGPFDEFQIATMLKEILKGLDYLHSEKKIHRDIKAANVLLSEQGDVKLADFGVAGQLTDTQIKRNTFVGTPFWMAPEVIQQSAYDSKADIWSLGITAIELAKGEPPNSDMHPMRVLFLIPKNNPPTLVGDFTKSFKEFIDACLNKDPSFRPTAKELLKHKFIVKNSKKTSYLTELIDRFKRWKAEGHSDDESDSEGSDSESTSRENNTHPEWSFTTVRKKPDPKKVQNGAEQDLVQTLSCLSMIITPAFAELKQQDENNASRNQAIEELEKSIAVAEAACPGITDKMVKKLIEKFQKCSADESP
CK2a1, sequence (P68400 whole entry): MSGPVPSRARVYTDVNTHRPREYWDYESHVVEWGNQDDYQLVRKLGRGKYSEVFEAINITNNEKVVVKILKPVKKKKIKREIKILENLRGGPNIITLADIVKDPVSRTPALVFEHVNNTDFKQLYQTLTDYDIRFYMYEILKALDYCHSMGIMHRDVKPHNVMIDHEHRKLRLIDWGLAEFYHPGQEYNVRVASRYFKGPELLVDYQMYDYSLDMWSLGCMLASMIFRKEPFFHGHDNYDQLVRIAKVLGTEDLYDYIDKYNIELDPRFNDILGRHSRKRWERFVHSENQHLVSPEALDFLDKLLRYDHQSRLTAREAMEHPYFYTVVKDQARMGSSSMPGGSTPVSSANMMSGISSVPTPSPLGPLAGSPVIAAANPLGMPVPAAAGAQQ
NDR2, sequence (Q9Y2H1 whole entry): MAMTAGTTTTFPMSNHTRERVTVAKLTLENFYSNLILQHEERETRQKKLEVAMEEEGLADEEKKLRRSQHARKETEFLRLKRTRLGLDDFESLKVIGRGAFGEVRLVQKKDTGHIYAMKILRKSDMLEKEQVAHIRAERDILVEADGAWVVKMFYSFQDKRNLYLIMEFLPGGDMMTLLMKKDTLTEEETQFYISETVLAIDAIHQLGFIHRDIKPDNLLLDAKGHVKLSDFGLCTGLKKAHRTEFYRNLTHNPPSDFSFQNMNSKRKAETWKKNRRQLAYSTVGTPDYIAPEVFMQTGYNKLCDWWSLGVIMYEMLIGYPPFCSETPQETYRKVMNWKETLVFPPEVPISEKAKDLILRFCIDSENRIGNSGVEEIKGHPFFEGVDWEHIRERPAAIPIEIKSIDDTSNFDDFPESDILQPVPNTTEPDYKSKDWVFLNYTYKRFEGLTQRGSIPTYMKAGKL
Erk2, sequence (P28482 whole entry): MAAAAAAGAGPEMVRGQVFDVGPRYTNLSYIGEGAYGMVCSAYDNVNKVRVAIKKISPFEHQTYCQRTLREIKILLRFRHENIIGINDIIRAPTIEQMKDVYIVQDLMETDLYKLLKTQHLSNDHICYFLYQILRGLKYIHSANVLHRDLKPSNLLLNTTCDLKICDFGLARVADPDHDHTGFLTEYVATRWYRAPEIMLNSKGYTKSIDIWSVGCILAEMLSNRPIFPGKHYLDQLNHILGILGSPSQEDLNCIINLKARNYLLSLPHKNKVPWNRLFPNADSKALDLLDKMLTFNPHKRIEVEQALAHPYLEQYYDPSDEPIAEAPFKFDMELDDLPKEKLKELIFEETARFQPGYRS
AAK1, sequence (Q2M2I8 whole entry): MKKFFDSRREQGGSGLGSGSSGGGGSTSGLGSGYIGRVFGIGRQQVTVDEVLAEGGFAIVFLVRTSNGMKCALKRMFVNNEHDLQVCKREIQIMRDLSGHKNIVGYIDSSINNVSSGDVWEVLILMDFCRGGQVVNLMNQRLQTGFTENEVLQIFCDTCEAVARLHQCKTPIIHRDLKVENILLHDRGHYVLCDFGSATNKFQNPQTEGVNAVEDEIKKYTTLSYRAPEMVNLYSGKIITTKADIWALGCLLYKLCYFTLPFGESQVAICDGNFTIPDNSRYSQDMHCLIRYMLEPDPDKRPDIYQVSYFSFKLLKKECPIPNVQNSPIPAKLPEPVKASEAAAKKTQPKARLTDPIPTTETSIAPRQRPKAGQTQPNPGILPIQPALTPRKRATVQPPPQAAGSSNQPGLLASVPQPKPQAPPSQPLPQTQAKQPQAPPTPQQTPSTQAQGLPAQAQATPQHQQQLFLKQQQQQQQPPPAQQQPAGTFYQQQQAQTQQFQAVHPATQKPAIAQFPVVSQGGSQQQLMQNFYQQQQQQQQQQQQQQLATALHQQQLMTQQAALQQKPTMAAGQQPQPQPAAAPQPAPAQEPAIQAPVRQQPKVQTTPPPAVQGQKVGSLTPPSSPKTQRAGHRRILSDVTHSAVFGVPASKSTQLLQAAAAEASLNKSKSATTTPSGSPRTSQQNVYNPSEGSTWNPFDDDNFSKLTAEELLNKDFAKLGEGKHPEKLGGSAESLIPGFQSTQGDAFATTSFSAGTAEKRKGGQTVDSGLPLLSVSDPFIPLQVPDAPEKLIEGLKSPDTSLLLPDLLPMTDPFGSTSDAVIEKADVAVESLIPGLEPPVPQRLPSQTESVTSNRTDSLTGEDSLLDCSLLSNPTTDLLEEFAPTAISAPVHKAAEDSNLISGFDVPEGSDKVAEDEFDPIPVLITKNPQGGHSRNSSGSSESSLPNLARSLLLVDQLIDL
CLK3, sequence (P49761 whole entry): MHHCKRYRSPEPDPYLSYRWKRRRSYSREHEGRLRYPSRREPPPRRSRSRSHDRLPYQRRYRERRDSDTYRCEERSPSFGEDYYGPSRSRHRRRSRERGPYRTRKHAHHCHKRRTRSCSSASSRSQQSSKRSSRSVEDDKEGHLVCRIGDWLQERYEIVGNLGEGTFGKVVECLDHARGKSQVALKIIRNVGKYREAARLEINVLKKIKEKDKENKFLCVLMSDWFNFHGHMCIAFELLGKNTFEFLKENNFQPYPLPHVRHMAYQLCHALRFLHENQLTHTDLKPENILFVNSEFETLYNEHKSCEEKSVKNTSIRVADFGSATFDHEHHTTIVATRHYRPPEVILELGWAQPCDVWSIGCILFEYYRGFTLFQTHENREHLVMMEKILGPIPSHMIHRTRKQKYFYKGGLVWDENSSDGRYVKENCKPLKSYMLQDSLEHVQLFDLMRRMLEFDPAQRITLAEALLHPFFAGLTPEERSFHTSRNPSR
DAPK1, sequence (P53355 whole entry): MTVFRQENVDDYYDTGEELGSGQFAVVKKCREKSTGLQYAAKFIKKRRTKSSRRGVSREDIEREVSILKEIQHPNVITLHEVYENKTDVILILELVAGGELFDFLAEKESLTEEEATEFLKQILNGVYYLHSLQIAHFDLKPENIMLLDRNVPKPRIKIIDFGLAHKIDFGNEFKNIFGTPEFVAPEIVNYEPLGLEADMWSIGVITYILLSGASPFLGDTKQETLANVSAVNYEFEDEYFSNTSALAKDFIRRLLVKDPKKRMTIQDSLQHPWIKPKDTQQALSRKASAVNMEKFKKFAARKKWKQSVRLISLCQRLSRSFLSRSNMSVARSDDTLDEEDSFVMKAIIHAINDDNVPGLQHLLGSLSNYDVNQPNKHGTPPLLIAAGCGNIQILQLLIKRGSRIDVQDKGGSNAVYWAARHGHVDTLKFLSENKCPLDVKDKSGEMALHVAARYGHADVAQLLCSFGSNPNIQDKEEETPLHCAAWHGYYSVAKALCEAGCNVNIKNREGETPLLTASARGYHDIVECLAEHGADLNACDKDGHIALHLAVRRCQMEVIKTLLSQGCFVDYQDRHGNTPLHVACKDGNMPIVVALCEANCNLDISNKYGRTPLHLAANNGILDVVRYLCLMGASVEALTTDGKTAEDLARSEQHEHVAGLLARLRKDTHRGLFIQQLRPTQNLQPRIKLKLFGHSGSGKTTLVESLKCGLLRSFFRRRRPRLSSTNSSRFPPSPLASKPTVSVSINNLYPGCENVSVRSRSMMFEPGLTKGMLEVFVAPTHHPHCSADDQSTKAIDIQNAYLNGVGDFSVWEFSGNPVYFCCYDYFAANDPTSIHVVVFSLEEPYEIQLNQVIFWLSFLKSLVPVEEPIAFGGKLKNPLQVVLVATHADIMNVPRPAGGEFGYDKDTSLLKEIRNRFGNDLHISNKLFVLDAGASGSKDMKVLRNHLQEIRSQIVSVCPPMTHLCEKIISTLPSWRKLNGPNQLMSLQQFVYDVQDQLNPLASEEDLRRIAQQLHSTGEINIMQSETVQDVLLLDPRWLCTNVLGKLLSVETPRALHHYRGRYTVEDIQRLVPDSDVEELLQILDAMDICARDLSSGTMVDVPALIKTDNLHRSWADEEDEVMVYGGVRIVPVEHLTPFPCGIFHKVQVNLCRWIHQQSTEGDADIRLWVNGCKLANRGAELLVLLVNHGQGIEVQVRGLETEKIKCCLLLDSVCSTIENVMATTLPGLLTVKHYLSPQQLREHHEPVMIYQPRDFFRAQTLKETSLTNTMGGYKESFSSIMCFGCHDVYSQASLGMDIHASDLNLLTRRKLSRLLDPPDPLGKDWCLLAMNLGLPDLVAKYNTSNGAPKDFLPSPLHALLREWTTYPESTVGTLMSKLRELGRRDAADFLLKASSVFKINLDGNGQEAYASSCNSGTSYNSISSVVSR

For the compound `Cc1cccc(-c2ccc(-c3cc4cnc(NCCCN5CCCC5=O)nc4n(CCCCN)c3=O)c(Cl)c2)n1` [compound 27, MR30], the “ΔTm MR30 (27)” value in [1] was -0.5 °C; in assay [2], 1.4 °C; in assay [3], -0.4 °C; in assay [4], -0.3 °C; in [5], 3.6 °C; in assay [6], -1.2 °C. Besides, the “ΔTm MR30 (27)” value in [7] is 0.8 °C; in assay [8] it was -1.2 °C; in assay [9], 0.4 °C; in assay [10], 0.5 °C; in assay [11], -0.3 °C; in [12], -1.0 °C. Further, the results for the “ΔTm MR30 (27)” value in assay [13], in [14] and in assay [15] were 7.9 °C, 1.5 °C and 2.8 °C, respectively.

Regarding `Cc1cccc(-c2ccc(-c3cc4cnc(Nc5cc(C(F)(F)F)ccc5C)nc4n(CCCCN)c3=O)c(Cl)c2)n1` [compound 28, 8-(4-Aminobutyl)-6-(2-chloro-4-(6-methylpyridin-2-yl)phenyl)-2-((2-methyl-5-(trifluoromethyl)phenyl)amino)pyrido[2,3-d]pyrimidin-7(8H)-one], the “ΔTm 28” value was -0.1 °C in assay [1]; -0.2 °C in assay [2]; -0.6 °C in assay [3]; 0.0 °C in assay [4]; 5.7 °C in assay [5]; -0.7 °C in assay [6]. Moreover, the “ΔTm 28” value was 8.4 °C in [7]; 0.2 °C in assay [8]; 0.7 °C in assay [9]; 10.6 °C in [10]; -0.2 °C in [11]; -1.6 °C in assay [12]. Besides, the “ΔTm 28” value was 8.8 °C in assay [13], 7.1 °C in [14] and 3.5 °C in assay [15].

Turning to `Cc1cccc(-c2ccc(-c3cc4cnc(NCCCN5CCNCC5)nc4n(CCCCN)c3=O)c(Cl)c2)n1` [compound 29, 8-(4-Aminobutyl)-6-(2-chloro-4-(6-methylpyridin-2-yl)phenyl)-2-((3-(piperazin-1-yl)propyl)amino)pyrido[2,3-d]pyrimidin-7(8H)-one], the “ΔTm 29” value is 0.0 °C in assay [1]; 0.9 °C in [2]; -0.2 °C in assay [3]; 0.0 °C in assay [4]; 5.0 °C in [5]; -0.9 °C in assay [6]. The “ΔTm 29” value was 4.6 °C in assay [7]; -0.3 °C in assay [8]; -0.4 °C in [9]; -0.4 °C in assay [10]; -0.2 °C in assay [11]; -0.5 °C in assay [12]. In addition, the “ΔTm 29” value in assay [13] turned out to be 10.2 °C; in assay [14], 4.9 °C; in assay [15], 2.6 °C.

Regarding `Cc1cccc(-c2ccc(-c3cc4cnc(Nc5ccc(CCCO)cc5)nc4n(CCCCN)c3=O)c(Cl)c2)n1` [compound 30, 8-(4-Aminobutyl)-6-(2-chloro-4-(6-methylpyridin-2-yl)phenyl)-2-((4-(3-hydroxypropyl)phenyl)amino)pyrido[2,3-d]pyrimidin-7(8H)-one], the “ΔTm 30” value in assay [1] was 4.1 °C; in assay [2], 4.8 °C; in [3] it was -1.1 °C; in assay [4] it was -0.2 °C; in assay [5], 7.5 °C; in [6], -0.7 °C. Besides, the “ΔTm 30” value in [7] was 12.3 °C; in [8], -1.8 °C; in assay [9], 3.5 °C; in assay [10], 0.5 °C; in assay [11] it was -0.3 °C; in assay [12] it was 1.7 °C. For the same compound, the figures for the “ΔTm 30” value in [13], in [14] and in assay [15] were 15.3 °C, 10.7 °C and 9.0 °C, respectively.

Consider `Cc1cccc(-c2ccc(-c3cc4cnc(Nc5ccc(O)cc5)nc4n(CCCCN)c3=O)c(Cl)c2)n1` [compound 31, 8-(4-Aminobutyl)-6-(2-chloro-4-(6-methylpyridin-2-yl)phenyl)-2-((4-hydroxyphenyl)amino) pyrido[2,3-d]pyrimidin-7(8H)-one], for which the “ΔTm 31” value in assay [1] is 4.0 °C; in assay [2] it was 6.7 °C; in assay [3] it was 0.0 °C; in assay [4] it was -0.5 °C; in assay [5], 5.5 °C; in assay [6] it was -0.6 °C. Besides, the “ΔTm 31” value in assay [7] is 11.7 °C; in [8], -1.0 °C; in assay [9], 1.3 °C; in assay [10] it was 2.0 °C; in [11], -0.1 °C; in [12], 2.0 °C. Besides, the “ΔTm 31” value in assay [13] turned out to be 14.7 °C; in assay [14] it was 9.9 °C; in [15], 8.5 °C.

With `Cc1cccc(-c2ccc(-c3cc4cnc(Nc5ccc(C)c(O)c5)nc4n(CCCCN)c3=O)c(Cl)c2)n1` [compound 32, 8-(4-Aminobutyl)-6-(2-chloro-4-(6-methylpyridin-2-yl)phenyl)-2-((3-hydroxy-4-methylphenyl)amino)pyrido[2,3-d]pyrimidin-7(8H)-one], the “ΔTm 32” value is 4.0 °C in assay [1]; 5.3 °C in assay [2]; -0.3 °C in [3]; 0.1 °C in assay [4]; 6.4 °C in assay [5]; -0.9 °C in [6]. In addition, the “ΔTm 32” value was 12.2 °C in assay [7]; -0.4 °C in assay [8]; 1.9 °C in [9]; 3.8 °C in assay [10]; -0.1 °C in [11]; 1.6 °C in assay [12]. Besides, the “ΔTm 32” value came to 15.5 °C in [13], 10.1 °C in assay [14] and 7.9 °C in assay [15].
